Experimental data taken from PMC4601640, “Stability of the Human Hsp90-p50^Cdc37 Chaperone Complex against Nucleotides and Hsp90 Inhibitors, and the Influence of Phosphorylation by Casein Kinase 2” (Molecules, 2015).
“Also recorded” adds a separate entry of the source. Like-named read-outs stand apart in the source and are kept apart here.

What was measured:
Hsp90β-p50^Cdc37 complex = system: Hsp90β-p50^Cdc37 complex; design: method as in PMID 19858214; conditions: ref [26]; cited from earlier work
hHsp90β-FL [1] = conditions: read-out: Reported Kd, cited from earlier work
(p)Hsp90-p50^Cdc37 = (p)Hsp90-p50^Cdc37 (Homo sapiens, UniProt P08238); test: ELISA complex formation, CK2-phosphorylated Hsp90β; conditions: ELISA
Description: (§2) Phosphorylation of full-length Hsp90β and p50^Cdc37 was performed using purified full-length CK2α. The reaction was carried out in a 2.5 mL volume containing 50 µM Hsp90β or p50^Cdc37, 0.5 µM CK2α, 0.5 mM ATP, 20 mM Tris (pH 7.5), 50 mM KCl, and 10 mM MgCl2, and was incubated for 1 h at 30 °C. Samples were removed for analysis of phosphorylation status, and the proteins were re-buffered into 50 mM HEPES (pH 7.5), 150 mM NaCl, and 1 mM DTT (ELISA), or into 50 mM HEPES (pH 7.5) for ITC, using PD-10 gravity columns (GE Healthcare). Dephosphorylation was performed using 2.5 units of FastAP (alkaline phosphatase from Thermo Scientific) in buffer containing 10 mM Tris (pH 8.0 at 37 °C), 5 mM MgCl2, 100 mM KCl, 0.02% Triton-X 100, and 0.5 mg/mL BSA for 1 h at 37 °C.
(§3) Purified GST-p50^Cdc37 (4 µM) or control (purified GST alone, 4 µM) was added to glutathione-coated 96-well plates (Pierce) in 100 μL protein buffer (50 mM HEPES, pH 7.5, 150 mM NaCl, 10 mM MgCl2, 0.05% Tween-20, and 0.1% BSA) and incubated for 1 h at room temperature (triplicate wells per sample). […] The mixtures were then added to the wells (100 μL per well, in triplicates) and incubated for 1 h at room temperature before washing. The wells were incubated with anti-His6-tag mAb (1 mg/mL stock, Abcam), diluted 1:2000 in antibody buffer (50 mM HEPES pH 7.5, 150 mM NaCl, 10 mM MgCl2, 0.05% Tween-20, and 1% BSA) for 1 h, followed by secondary antibody (horse anti-mouse HRP-conjugated IgG, Cell Signaling Technology), diluted 1:5000 in antibody buffer, for 1.5 h at room temperature. After washing three times with 1× HBS-T and two times with 1× HBS, 200 μL HRP substrate (SigmaFast OPD) was added per well. The plates were incubated at room temperature, and the absorbance was read at 450 nm after 15 min and 30 min using a SpectraMax 340 PC plate reader (Molecular Devices). For dose-response measurements, absorption values were corrected for unspecific binding of Hsp90 to immobilized GST, and the raw data were fit to equation (1), where f(I) is the fraction of complex remaining, [I] is the concentration of the inhibitor, IC50 is the half maximal inhibitory concentration against Hsp90-p50^Cdc37 complex formation, n is the Hill slope coefficient, min is the signal remaining at high inhibitor concentrations and max is the signal of the uninhibited complex. Corrected absorption values (ΔOD) for the uninhibited Hsp90-p50^Cdc37 complex (unphosphorylated and phosphorylated) were in the range of 0.4–1.0. Data were expressed relative to the respective max value of Equation (1). (1) f(I)=min+(max−min)/1+([I]/IC50)^n

ΔHsp90-p50^Cdc37 = target: T1, ΔHsp90-p50^Cdc37 (Homo sapiens, UniProt P08238, DEL220-271/E274G/I272G/K273G/K275G); test: ELISA complex formation, ΔHsp90; assay type: binding
T1 construct: human Hsp90β (1-724 Δ220-275); made in house; host or cells: E. coli BL21 Star (DE3) (ΔHsp90β); E. coli BL21 (DE3) (GST-p50Cdc37)

hHsp90β-FL [2] = target: T2, hHsp90β-FL (Homo sapiens, UniProt P08238); test: ITC direct binding to full-length Hsp90β; conditions: for Kd: unphosphorylated hHsp90β-FL, 30 °C, read-out: Observed Kd
T2 construct: The gene encoding human full-length Hsp90β was subcloned from T47D cell line cDNA; His6 (N); made in house; host or cells: E. coli BL21 Star (DE3)
Description: (§1) Binding of p50^Cdc37 and small molecules to Hsp90 was analyzed using a MicroCal iTC200 titration calorimeter (GE Healthcare). Compounds or p50^Cdc37 were titrated into a solution of Hsp90 using the following concentrations: p50^Cdc37 (200 µM) into Hsp90 (20 µM), nucleotides (600 µM) into Hsp90 (30 µM), inhibitors (300 µM) into Hsp90 (30 µM). […] All experiments were conducted in 50 mM HEPES pH 7.5, 10 mM MgCl2 at 30 °C. For titration of inhibitors, the buffer contained 5% DMSO. […] Generation of heat due to dilution was determined in separate experiments by diluting protein into buffer and subtracting these as blank values for each injection. Corrected heat values were fitted using a nonlinear least squares curve-fitting algorithm (Microcal Origin 7.0) to obtain the stoichiometry (n), binding constants (Ka, Kd), and change in enthalpy for each enzyme-ligand interaction (ΔH).

hΔHsp90β = target: T3, hΔHsp90β (Homo sapiens, UniProt P08238, DEL220-271/E274G/I272G/K273G/K275G); test: ITC direct binding to Hsp90β deletion mutant lacking the charged linker; conditions: 50 mM HEPES pH 7.5, 10 mM MgCl2, 30 °C, read-out: Observed Kd
T3 construct: human Hsp90β (1-724 Δ220-275); His6 (N); made in house; host or cells: E. coli BL21 Star (DE3)
Source text: The gene encoding human full-length Hsp90β was subcloned from T47D cell line cDNA, and human full-length CK2α was subcloned from MCF7 cell line cDNA, both a kind gift from Dr. Jonathan Lancaster, Moffitt Cancer Center. […] The deleted sections in the two Hsp90 genes were each replaced by four glycine residues. Hsp90α and Hsp90β were subcloned into the pET28a vector (Novagen), and p50^Cdc37 was subcloned into a modified pET28a vector containing a maltose-binding protein (MBP) solubility tag and a PreScission protease cleavage site using restriction enzymes BamHI and NotI (Fermentas) and T4 DNA ligase (Invitrogen) following the manufacturers’ instructions. BamHI was substituted with NdeI for full-length Hsp90β. p50^Cdc37 was also subcloned into the pGEX6P-1 vector (GE Healthcare) using the same procedure as above to provide an N-terminal GST-tag for GST pull-down and ELISA experiments. The plasmids were transformed into E. coli BL21 Star (DE3) (Hsp90α and Hsp90β, Invitrogen), Tuner (DE3) (p50^Cdc37 modified pET28a, Novagen), or BL21 (DE3) (p50^Cdc37 pGEX6P-1, Stratagene) expression strains. Transformed cells were grown in LB broth at 37 °C until the OD600 reached 0.4, then the temperature was lowered to 16 °C, and cells were induced with 0.1 mM IPTG at OD600 = 0.5–0.7. Cultures were then grown for 20–24 h before harvesting by centrifugation (30 min at 30,000× g, 4 °C).
as §1

h(p)Hsp90β-FL = h(p)Hsp90β-FL (Homo sapiens, UniProt P08238); test: ITC direct binding to CK2-phosphorylated full-length Hsp90β; conditions: 30 °C, read-out: Observed Kd
Description: as §1

[3] = target: T4, ΔHsp90β interaction with GST-p50^Cdc37 (Homo sapiens, UniProt P08238, DEL220-271/E274G/I272G/K273G/K275G); test: GST pull-down of ΔHsp90β with GST-p50^Cdc37; assay type: binding; conditions: for effect on complex in GST pull-down: 1 mM nucleotide or 0.1 mM inhibitor, 15 min incubation, SDS-PAGE
T4 construct: human Hsp90β (1-724 Δ220-275); made in house; host or cells: E. coli BL21 Star (DE3) (ΔHsp90β); E. coli BL21 (DE3) (GST-p50Cdc37)
Description: GST pull-down experiments were carried out using 1 mL GST 4 FastFlow resin in 8 mL Flex columns (Kontes). All experiments were performed at room temperature by gravity flow. Loading and wash buffers contained 50 mM Tris pH 8, 50 mM KCl, 5 mM MgCl2, and 5% DMSO. The elution buffer contained an additional 10 mM reduced glutathione. […] The resin was washed with 20 CV wash buffer, and samples were eluted with 2 CV elution buffer. Eluted protein was analysed on 12% SDS-PAGE stained with Coomassie blue for visualization.

Hsp90-p50^Cdc37 = target: T5, Hsp90-p50^Cdc37 (Homo sapiens, UniProt P08238); test: ELISA complex formation, immobilized GST-p50^Cdc37 and Hsp90β, unphosphorylated; assay type: binding; conditions: for IC50: ELISA, Hsp90-p50^Cdc37 (unphosphorylated); for inhibitory activity against the complex: unphosphorylated or phosphorylated complex, in vitro
T5 construct: The gene encoding human full-length Hsp90β was subcloned from T47D cell line cDNA; made in house; host or cells: E. coli BL21 Star (DE3) (Hsp90β); E. coli BL21 (DE3) (GST-p50Cdc37)

Hsp90-(p)p50^Cdc37 = target: T6, Hsp90-(p)p50^Cdc37 (Homo sapiens, UniProt P08238); test: ELISA complex formation, CK2-phosphorylated p50^Cdc37; assay type: binding
T6 construct: The gene encoding human full-length Hsp90β was subcloned from T47D cell line cDNA; made in house; host or cells: E. coli BL21 Star (DE3) (Hsp90β); E. coli BL21 (DE3) (GST-p50Cdc37)

[4] = target: T7, interaction of the N-terminal domain of Hsp90β with p50^Cdc37 (Homo sapiens, UniProt P08238); test: ITC of N-terminal Hsp90β with p50^Cdc37 in the presence of ADP; assay type: binding; conditions: 5 mM ADP
T7 construct: human N-terminal Hsp90β (1-219, denoted Hsp90β-N); His6 (N); made in house; host or cells: E. coli BL21 Star (DE3) (Hsp90β-N); E. coli Tuner (DE3) (p50Cdc37)
Description: Binding of p50^Cdc37 and small molecules to Hsp90 was analyzed using a MicroCal iTC200 titration calorimeter (GE Healthcare). Compounds or p50^Cdc37 were titrated into a solution of Hsp90 using the following concentrations: p50^Cdc37 (200 µM) into Hsp90 (20 µM), nucleotides (600 µM) into Hsp90 (30 µM), inhibitors (300 µM) into Hsp90 (30 µM). Titrations of compounds into p50^Cdc37 were performed with similar compound/protein ratios. All experiments were conducted in 50 mM HEPES pH 7.5, 10 mM MgCl2 at 30 °C. For titration of inhibitors, the buffer contained 5% DMSO. Typically, an initial 0.5 µL injection was followed by 19 injections of 2.2 µL of syringe solution (compound or p50^Cdc37) into a 200 µL protein solution of Hsp90 constantly stirred at 1000 rpm, and data were recorded for 180 s between injections. Generation of heat due to dilution was determined in separate experiments by diluting protein into buffer and subtracting these as blank values for each injection. Corrected heat values were fitted using a nonlinear least squares curve-fitting algorithm (Microcal Origin 7.0) to obtain the stoichiometry (n), binding constants (Ka, Kd), and change in enthalpy for each enzyme-ligand interaction (ΔH).

(p)Hsp90-(p)p50^Cdc37 = (p)Hsp90-(p)p50^Cdc37 (Homo sapiens, UniProt P08238); test: ELISA complex formation, both proteins CK2-phosphorylated; conditions: for IC50: ELISA, (p)Hsp90-(p)p50^Cdc37 (phosphorylated complex); for disruption of the phosphorylated complex: CK2-phosphorylated complex
Description: as §2, §3

yHsp82-FL = conditions: yHsp82-FL; ref [34]; read-out: Reported Kd; cited from earlier work
[5] = system: yeast Hsp90 complex formation with human p50^Cdc37 or yeast Cdc37 protein; design: method as in PMID 11916974; conditions: ref [39]; cited from earlier work

T1 sequence (P08238 with tags, fused parts or gaps DEL220-271/I272G/K273G/E274G/K275G): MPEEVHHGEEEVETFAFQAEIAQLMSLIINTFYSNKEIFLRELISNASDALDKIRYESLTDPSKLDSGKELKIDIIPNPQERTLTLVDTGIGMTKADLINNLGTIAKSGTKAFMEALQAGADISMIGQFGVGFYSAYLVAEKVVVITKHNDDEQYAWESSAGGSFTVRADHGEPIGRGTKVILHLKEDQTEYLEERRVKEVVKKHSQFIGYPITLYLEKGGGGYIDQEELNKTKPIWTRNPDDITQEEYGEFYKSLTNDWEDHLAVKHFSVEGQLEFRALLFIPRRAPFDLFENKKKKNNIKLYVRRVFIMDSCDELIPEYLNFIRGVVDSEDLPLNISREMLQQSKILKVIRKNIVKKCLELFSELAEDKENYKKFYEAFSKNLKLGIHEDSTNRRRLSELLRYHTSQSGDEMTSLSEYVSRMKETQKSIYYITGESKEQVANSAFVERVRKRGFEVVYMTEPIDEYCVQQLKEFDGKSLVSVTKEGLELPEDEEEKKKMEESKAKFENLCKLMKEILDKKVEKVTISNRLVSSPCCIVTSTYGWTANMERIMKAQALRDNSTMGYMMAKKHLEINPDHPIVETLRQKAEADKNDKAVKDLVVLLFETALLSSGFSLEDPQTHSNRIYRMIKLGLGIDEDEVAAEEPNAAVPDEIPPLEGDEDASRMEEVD
T4 sequence (P08238 with tags, fused parts or gaps DEL220-271/I272G/K273G/E274G/K275G): as above
T3 sequence (P08238 with tags, fused parts or gaps DEL220-271/I272G/K273G/E274G/K275G): as above
h(p)Hsp90β-FL, sequence (P08238 whole entry): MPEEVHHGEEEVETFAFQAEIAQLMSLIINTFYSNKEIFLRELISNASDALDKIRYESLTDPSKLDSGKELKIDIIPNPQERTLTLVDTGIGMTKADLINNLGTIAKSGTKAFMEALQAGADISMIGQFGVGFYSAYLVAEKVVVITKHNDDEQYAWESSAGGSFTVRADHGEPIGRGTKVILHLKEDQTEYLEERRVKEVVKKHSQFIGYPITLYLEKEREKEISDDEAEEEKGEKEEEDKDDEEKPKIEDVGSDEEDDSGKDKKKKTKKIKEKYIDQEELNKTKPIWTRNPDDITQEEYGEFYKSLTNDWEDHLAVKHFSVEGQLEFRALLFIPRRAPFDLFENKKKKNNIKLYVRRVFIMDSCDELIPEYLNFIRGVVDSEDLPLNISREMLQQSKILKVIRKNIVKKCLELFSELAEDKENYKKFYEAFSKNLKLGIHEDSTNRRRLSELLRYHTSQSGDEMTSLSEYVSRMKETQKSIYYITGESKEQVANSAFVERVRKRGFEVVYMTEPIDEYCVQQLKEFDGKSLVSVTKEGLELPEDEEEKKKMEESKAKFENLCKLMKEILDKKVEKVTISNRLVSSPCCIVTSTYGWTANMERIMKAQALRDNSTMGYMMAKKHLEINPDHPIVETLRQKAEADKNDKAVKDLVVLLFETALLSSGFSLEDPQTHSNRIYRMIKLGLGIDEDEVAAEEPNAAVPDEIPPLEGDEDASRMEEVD
(p)Hsp90-p50^Cdc37, sequence (P08238 whole entry): as above
(p)Hsp90-(p)p50^Cdc37, sequence (P08238 whole entry): as above
T7 sequence (P08238 1-219): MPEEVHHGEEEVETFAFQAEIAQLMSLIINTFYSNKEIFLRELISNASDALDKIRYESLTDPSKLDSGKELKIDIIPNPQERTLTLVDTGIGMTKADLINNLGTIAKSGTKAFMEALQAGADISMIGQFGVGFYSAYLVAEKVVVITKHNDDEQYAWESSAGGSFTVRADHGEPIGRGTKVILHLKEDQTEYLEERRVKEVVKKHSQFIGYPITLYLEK

Row | Compound | effect on complex formation between Hsp90β and p50^Cdc37 (Hsp90β-p50^Cdc37 complex) | IC50 ((p)Hsp90-p50^Cdc37; (p)Hsp90-p50^Cdc37) | IC50 (ΔHsp90-p50^Cdc37) | Kd (hHsp90β-FL [2]) | Kd (hΔHsp90β) | Kd (h(p)Hsp90β-FL) | Kd (hHsp90β-FL [1]; ref [31]) | effect on complex in GST pull-down [3] | IC50 (Hsp90-p50^Cdc37) | IC50 ((p)Hsp90-(p)p50^Cdc37) | inhibitory activity against the complex (Hsp90-p50^Cdc37) | other results
1 | C=CCNC1=C2C[C@@H](C)C[C@H](OC)[C@H](O)[C@@H](C)/C=C(\C)[C@H](OC(N)=O)[C@@H](OC)/C=C\C=C(/C)C(=O)NC(=CC1=O)C2=O [17-AAG, Tanespimycin] | showed no effect |  |  |  |  |  |  |  |  |  |  | 
2 | CO[C@H]1/C=C\C=C(/C)C(=O)NC2=CC(=O)C(NCCN(C)C)=C(C[C@@H](C)C[C@H](OC)[C@H](O)[C@@H](C)/C=C(\C)[C@@H]1OC(N)=O)C2=O [17-DMAG] | showed no effect |  |  |  |  |  |  |  |  |  |  | Kd (hHsp90β-FL [1]; ref [33]): 0.35 µM
3 | Nc1ncnc2c1ncn2[C@@H]1O[C@H](COP(=O)(O)OP(=O)(O)O)[C@@H](O)[C@H]1O [ADP] | did not exert inhibitory activity; also recorded: showed no effect | 220 ± 24 µM | 400 ± 81 µM | 8.9 µM | 11 µM | 13 µM | 7.2 µM | inhibited formation of the complex; also recorded: caused disruption of the complex | 500 ± 94 µM | 32 ± 5.6 µM |  | IC50 ((p)Hsp90-p50^Cdc37; span: phosphorylation of either Hsp90 or p50^Cdc37): 220 to 270 µM; IC50 (Hsp90-(p)p50^Cdc37): 270 ± 35 µM; interaction of N-terminal Hsp90β with p50^Cdc37 in the presence of ADP [4]: abolished
4 | Nc1ncnc2c1ncn2[C@@H]1O[C@H](COP(=O)(O)OP(=O)(O)NP(=O)(O)O)[C@@H](O)[C@H]1O [AMP-PNP] |  | > 1000 µM | > 1000 µM | 85 µM | 84 µM | 590 µM | 148 µM |  | > 1000 µM | > 1000 µM | did not show appreciable inhibitory activity | disruption of the phosphorylated complex ((p)Hsp90-(p)p50^Cdc37): remained largely ineffective
5 | Nc1ncnc2c1ncn2[C@@H]1O[C@H](COP(=O)(O)OP(=O)(O)OP(=O)(O)O)[C@@H](O)[C@H]1O [ATP] |  | 450 ± 150 µM | > 1000 µM | 4.6 µM | 43 µM | 11 µM | 240 µM | stable complex | > 1000 µM | 230 ± 40 µM |  | IC50 (Hsp90-(p)p50^Cdc37): > 1000 µM; disruption of the phosphorylated complex ((p)Hsp90-(p)p50^Cdc37): remained largely ineffective
6 | O=C(O)CCc1nn(Cc2ccc(Cl)cc2Cl)c2cc(C(F)(F)F)ccc12 [H2-GMZ, H2-gamendazole] |  | > 1000 µM | > 1000 µM |  |  |  |  | ineffective | > 1000 µM | > 1000 µM | did not show appreciable inhibitory activity | binding potential towards Hsp90β (hHsp90β-FL [2]; Figure 3): failed to display binding potential; protection of the complex from ADP in GST pull-down competition ([3]; in the presence of ADP, 0.1 mM radicicol): had no effect; inhibitory activity against the complex (Hsp90-p50^Cdc37; listed as H2-gamendazole): did not affect the interaction of Hsp90 with p50^Cdc37 in vitro
7 | CCNC(=O)c1noc(-c2cc(C(C)C)c(O)cc2O)c1-c1ccc(CN2CCOCC2)cc1 [NVP-AUY922] |  |  |  |  |  |  |  |  |  |  | did not show appreciable inhibitory activity | Kd (hHsp90β-FL [1]; ref [32]): 0.0017 µM
8 | C[C@@H]1C[C@H]2O[C@@H]2/C=C\C=C\C(=O)Cc2c(Cl)c(O)cc(O)c2C(=O)O1 [Radicicol] |  |  |  |  |  |  |  |  |  |  |  | Kd (yHsp82-FL): 0.019 µM
9 | COC1=C2C[C@@H](C)C[C@H](OC)[C@H](O)[C@@H](C)/C=C(\C)[C@H](OC(N)=O)[C@@H](OC)/C=C\C=C(/C)C(=O)NC(=CC1=O)C2=O [geldanamycin] |  |  |  |  |  |  |  |  |  |  |  | influence on complex formation [5]: did not influence complex formation
10 | (p)p50^Cdc37: human p50^Cdc37 phosphorylated by CK2 at residue Ser13 |  |  |  |  |  | 1.9 ± 0.13 µM |  |  |  |  |  | 
